# Data reported in US8198273B2, “Compounds and methods for kinase modulation, and indications therefor” (Plexxikon Inc., priority 2009, dated 2012).
# Columns and labels:
# CYP2C9 = CYP2C9 (Homo sapiens, UniProt P11712); assay: CYP2C9 inhibition (fluorescent substrate); type: in vitro ADME; settings: CYP2C9, MFC substrate; read-out: Cyp IC50 2C9
# Summary of the method: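 First, 100 mM DMSO stocks are diluted into acetonitrile, then twofold through co-factor mix for 10 points. Next, mixtures are preincubated 10 min at 37 °C.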
# CYP3A4(BQ) = CYP3A4(BQ) (Homo sapiens, UniProt P08684); assay: CYP3A4(BQ) inhibition (fluorescent substrate); type: in vitro ADME; settings: read-out: Cyp IC50 3A4(BQ)
# Summary of the method: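 Compound, from a 100 mM DMSO stock and diluted 1:1 over 10 points in co-factor mix, was incubated at 37° C with enzyme and a known substrate. Decrease in fluorescent product against concentration gave the IC50.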
# [1] = Relative solubility by turbidity in aqueous buffers of varying pH; type: physicochemical; settings: for turbidity threshold (L, M, H) 7.4: HEPES pH 7.4; for turbidity threshold (L, M, H) 4.5: SIF pH 4.5; for turbidity threshold (L, M, H) 6.8: SIF pH 6.8; for turbidity threshold (L, M, H) 1.4: buffer pH 1.4 (SGF)
# Summary of the method: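 Turbidity endpoint: concentration where optical density at 490, 535 and 650 nm exceeds 0.01, three-wavelength average used. Buffers at pH 1.5, 4.5, 6.8 and 7.4; DMSO serial dilutions of 25 mM stock spiked 1 μL into 99 μL buffer. Low <31.3, moderate 31.3–250, high >250 μM.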
# B-Raf = B-Raf (Homo sapiens, UniProt P15056); assay: B-Raf biochemical kinase inhibition (AlphaScreen, biotin-MEK1 substrate); settings: 100 μM ATP
# Summary of the method: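 Serial 1:3 dilutions of compound (0.1 mM DMSO stock, eight points) were added first, then ATP to start the reaction at 100 μM final.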
# Sequence of CYP2C9 (P11712 whole entry): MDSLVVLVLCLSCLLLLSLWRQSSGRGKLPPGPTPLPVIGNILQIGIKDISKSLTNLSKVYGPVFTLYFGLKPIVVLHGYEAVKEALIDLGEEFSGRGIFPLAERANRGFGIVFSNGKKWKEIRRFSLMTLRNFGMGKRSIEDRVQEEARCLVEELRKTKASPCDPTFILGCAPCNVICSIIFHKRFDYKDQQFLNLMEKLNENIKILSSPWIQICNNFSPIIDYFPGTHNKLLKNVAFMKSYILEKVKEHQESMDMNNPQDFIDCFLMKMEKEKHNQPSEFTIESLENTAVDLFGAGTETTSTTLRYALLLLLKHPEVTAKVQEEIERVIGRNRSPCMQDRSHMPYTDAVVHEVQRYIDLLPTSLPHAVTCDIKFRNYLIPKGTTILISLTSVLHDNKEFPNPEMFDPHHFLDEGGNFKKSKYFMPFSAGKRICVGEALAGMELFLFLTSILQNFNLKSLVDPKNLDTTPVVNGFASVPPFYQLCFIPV
# Sequence of CYP3A4(BQ) (P08684 whole entry): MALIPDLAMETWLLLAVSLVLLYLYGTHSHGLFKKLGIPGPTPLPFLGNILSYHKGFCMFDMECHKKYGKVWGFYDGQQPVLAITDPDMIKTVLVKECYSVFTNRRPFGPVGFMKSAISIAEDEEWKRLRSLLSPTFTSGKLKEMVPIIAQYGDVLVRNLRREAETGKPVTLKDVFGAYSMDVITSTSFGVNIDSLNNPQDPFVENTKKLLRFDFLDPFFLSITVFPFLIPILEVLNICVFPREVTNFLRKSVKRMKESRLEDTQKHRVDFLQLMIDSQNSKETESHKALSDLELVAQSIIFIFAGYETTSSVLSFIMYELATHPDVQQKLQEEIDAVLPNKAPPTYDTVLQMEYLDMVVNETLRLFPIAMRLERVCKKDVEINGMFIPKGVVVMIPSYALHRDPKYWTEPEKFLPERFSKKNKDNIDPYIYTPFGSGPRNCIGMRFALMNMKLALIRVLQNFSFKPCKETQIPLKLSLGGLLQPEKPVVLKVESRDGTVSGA
# Sequence of B-Raf (P15056 whole entry): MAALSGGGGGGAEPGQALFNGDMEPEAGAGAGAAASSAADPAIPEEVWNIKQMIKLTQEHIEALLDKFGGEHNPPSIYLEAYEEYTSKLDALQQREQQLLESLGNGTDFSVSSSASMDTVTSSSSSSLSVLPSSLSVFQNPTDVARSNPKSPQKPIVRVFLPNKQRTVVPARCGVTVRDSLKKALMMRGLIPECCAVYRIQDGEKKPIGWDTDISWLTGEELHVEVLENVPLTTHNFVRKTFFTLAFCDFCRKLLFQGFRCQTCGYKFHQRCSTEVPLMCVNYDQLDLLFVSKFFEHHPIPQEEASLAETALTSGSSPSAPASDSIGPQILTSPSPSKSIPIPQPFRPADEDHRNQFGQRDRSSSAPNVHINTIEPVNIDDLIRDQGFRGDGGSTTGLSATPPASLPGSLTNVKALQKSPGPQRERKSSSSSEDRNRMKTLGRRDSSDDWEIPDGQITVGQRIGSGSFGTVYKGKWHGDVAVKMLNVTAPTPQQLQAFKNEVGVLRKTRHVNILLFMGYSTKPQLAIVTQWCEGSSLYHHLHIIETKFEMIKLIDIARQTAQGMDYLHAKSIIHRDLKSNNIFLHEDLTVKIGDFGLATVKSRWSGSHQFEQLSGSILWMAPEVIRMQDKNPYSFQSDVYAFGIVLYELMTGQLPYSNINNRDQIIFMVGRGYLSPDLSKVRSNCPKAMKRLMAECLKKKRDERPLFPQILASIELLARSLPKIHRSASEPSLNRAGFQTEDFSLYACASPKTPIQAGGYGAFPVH
Structure (SMILES),IC50 (CYP2C9),IC50 (CYP3A4(BQ)),"turbidity threshold (L, M, H) 7.4 [1]","turbidity threshold (L, M, H) 4.5 [1]","turbidity threshold (L, M, H) 6.8 [1]","turbidity threshold (L, M, H) 1.4 [1]",IC50 (B-Raf)
"N#Cc1cnc2[nH]cc(C(=O)c3cccc(NS(=O)(=O)c4cc(F)ccc4F)c3F)c2c1 [P-2052, N-[3-(5-Cyano-1H-pyrrolo[2,3-b]pyridine-3-carbonyl)-2-fluoro-phenyl]-2,5-difluoro-benzenesulfonamide]",< 5 µM,> 10 µM,M (moderate solubility if the threshold concentration is 31.3 μM to 250 μM),L (low solubility if the threshold concentration is <31.3 04),M (moderate solubility if the threshold concentration is 31.3 μM to 250 μM),L (low solubility if the threshold concentration is <31.3 04),< 0.1 µM
"N#Cc1cnc2[nH]cc(C(=O)c3cccc(NS(=O)(=O)c4cccc(F)c4)c3F)c2c1 [P-2053, N-[3-(5-Cyano-1H-pyrrolo[2,3-b]pyridine-3-carbonyl)-2-fluoro-phenyl]-3-fluoro-benzenesulfonamide]",5 to 10 µM,> 10 µM,M (moderate solubility if the threshold concentration is 31.3 μM to 250 μM),L (low solubility if the threshold concentration is <31.3 04),M (moderate solubility if the threshold concentration is 31.3 μM to 250 μM),L (low solubility if the threshold concentration is <31.3 04),< 0.01 µM
"Cc1cnc2[nH]cc(C(=O)c3c(F)ccc(NS(=O)(=O)c4cccnc4)c3F)c2c1 [P-2069, Pyridine-3-sulfonic acid [2,4-difluoro-3-(5-methyl-1H-pyrrolo[2,3-b]pyridine-3-carbonyl)-phenyl]-amide]",< 5 µM,< 5 µM,H (high solubility if the threshold concentration is >250 μM),M (moderate solubility if the threshold concentration is 31.3 μM to 250 μM),M (moderate solubility if the threshold concentration is 31.3 μM to 250 μM),H (high solubility if the threshold concentration is >250 μM),< 0.01 µM
"CCCS(=O)(=O)Nc1ccc(F)c(C(=O)c2c[nH]c3ncc(-c4ccc(C(=O)NCC)nc4)cc23)c1F [P-2151, 5-{3-[2,6-Difluoro-3-(propane-1-sulfonylamino)-benzoyl]-1H-pyrrolo[2,3-b]pyridin-5-yl}-pyridine-2-carboxylic acid ethylamide]",5 to 10 µM,> 10 µM,L (low solubility if the threshold concentration is <31.3 04),L (low solubility if the threshold concentration is <31.3 04),L (low solubility if the threshold concentration is <31.3 04),L (low solubility if the threshold concentration is <31.3 04),< 0.01 µM
"CCCS(=O)(=O)Nc1ccc(F)c(C(=O)c2c[nH]c3ncc(-c4ccc(F)nc4)cc23)c1F [P-2155, Propane-1-sulfonic acid {2,4-difluoro-3-[5-(6-fluoro-pyridin-3-yl)-1H-pyrrolo[2,3-b]pyridine-3-carbonyl]-phenyl}-amide]",> 10 µM,> 10 µM,L (low solubility if the threshold concentration is <31.3 04),L (low solubility if the threshold concentration is <31.3 04),L (low solubility if the threshold concentration is <31.3 04),L (low solubility if the threshold concentration is <31.3 04),< 0.01 µM
"CCCS(=O)(=O)Nc1ccc(F)c(C(=O)c2c[nH]c3ncc(-c4cncnc4)cc23)c1F [P-2162, Propane-1-sulfonic acid [2,4-difluoro-3-(5-pyrimidin-5-yl-1H-pyrrolo[2,3-b]pyridine-3-carbonyl)-phenyl]-amide]",5 to 10 µM,< 5 µM,M (moderate solubility if the threshold concentration is 31.3 μM to 250 μM),M (moderate solubility if the threshold concentration is 31.3 μM to 250 μM),M (moderate solubility if the threshold concentration is 31.3 μM to 250 μM),M (moderate solubility if the threshold concentration is 31.3 μM to 250 μM),< 0.1 µM
"CCCS(=O)(=O)Nc1ccc(F)c(C(=O)c2c[nH]c3ncc(-c4ccc(NS(C)(=O)=O)cc4)cc23)c1F [P-2165, Propane-1-sulfonic acid {2,4-difluoro-3-[5-(4-methanesulfonylamino-phenyl)-1H-pyrrolo[2,3-b]pyridine-3-carbonyl]-phenyl}-amide]",5 to 10 µM,> 10 µM,L (low solubility if the threshold concentration is <31.3 04),L (low solubility if the threshold concentration is <31.3 04),L (low solubility if the threshold concentration is <31.3 04),L (low solubility if the threshold concentration is <31.3 04),< 0.01 µM
"CCCS(=O)(=O)Nc1ccc(F)c(C(=O)c2c[nH]c3ncc(-c4ccc(S(=O)(=O)N5CCOCC5)cc4)cc23)c1F [P-2166, Propane-1-sulfonic acid (2,4-difluoro-3-{5-[4-(morpholine-4-sulfonyl)-phenyl]-1H-pyrrolo[2,3-b]pyridine-3-carbonyl}-phenyl)-amide]",> 10 µM,> 10 µM,L (low solubility if the threshold concentration is <31.3 04),L (low solubility if the threshold concentration is <31.3 04),L (low solubility if the threshold concentration is <31.3 04),L (low solubility if the threshold concentration is <31.3 04),< 0.01 µM
"CCCS(=O)(=O)Nc1ccc(F)c(C(=O)c2c[nH]c3ncc(-c4cn[nH]c4)cc23)c1F [P-2174, Propane-1-sulfonic acid {2,4-difluoro-3-[5-(1H-pyrazol-4-yl)-1H-pyrrolo[2,3-b]pyridine-3-carbonyl]-phenyl}-amide]",< 5 µM,< 5 µM,L (low solubility if the threshold concentration is <31.3 04),L (low solubility if the threshold concentration is <31.3 04),L (low solubility if the threshold concentration is <31.3 04),L (low solubility if the threshold concentration is <31.3 04),< 0.01 µM
"CCCS(=O)(=O)Nc1ccc(F)c(C(=O)c2c[nH]c3ncc(-c4cnn(CCN5CCOCC5)c4)cc23)c1F [P-2177, Propane-1-sulfonic acid (2,4-difluoro-3-{5-[1-(2-morpholin-4-yl-ethyl)-1H-pyrazol-4-yl]-1H-pyrrolo[2,3-b]pyridine-3-carbonyl}-phenyl)-amide]",< 5 µM,> 10 µM,L (low solubility if the threshold concentration is <31.3 04),M (moderate solubility if the threshold concentration is 31.3 μM to 250 μM),L (low solubility if the threshold concentration is <31.3 04),H (high solubility if the threshold concentration is >250 μM),< 0.01 µM
"CCCS(=O)(=O)Nc1ccc(F)c(C(=O)c2c[nH]c3ncc(-c4ccc(OCCCN(C)C)nc4)cc23)c1F [P-2178, Propane-1-sulfonic acid (3-{5-[6-(3-dimethylamino-propoxy)-pyridin-3-yl]-1H-pyrrolo[2,3-b]pyridine-3-carbonyl}-2,4-difluoro-phenyl)-amide]",5 to 10 µM,< 5 µM,L (low solubility if the threshold concentration is <31.3 04),M (moderate solubility if the threshold concentration is 31.3 μM to 250 μM),L (low solubility if the threshold concentration is <31.3 04),H (high solubility if the threshold concentration is >250 μM),< 0.01 µM
"CCCS(=O)(=O)Nc1ccc(F)c(C(=O)c2c[nH]c3ncc(-c4ccc(C(=O)NC)nc4)cc23)c1F [P-2180, 5-{3-[2,6-Difluoro-3-(propane-1-sulfonylamino)-benzoyl]-1H-pyrrolo[2,3-b]pyridin-5-yl}-pyridine-2-carboxylic acid methylamide]",< 5 µM,> 10 µM,L (low solubility if the threshold concentration is <31.3 04),L (low solubility if the threshold concentration is <31.3 04),L (low solubility if the threshold concentration is <31.3 04),L (low solubility if the threshold concentration is <31.3 04),< 0.01 µM
